In ChEMBL document CHEMBL5375999, “Discovery of a Dual Tubulin and Neuropilin-1 (NRP1) Inhibitor with Potent In Vivo Anti-Tumor Activity via Pharmacophore-based Docking Screening, Structure Optimization, and Biological Evaluation” (J Med Chem, 2023):
Calls of active or inactive are those of the source. The rule behind the calls is not given here.

Experiments:
[1] = biological target: Neuropilin-1 (Homo sapiens) (UniProt O14786); assay: Inhibition of [125I]-VEGF-A165 binding to NRP1 (unknown origin) transfected in HUVECs at 12 uM incubated for 2 hrs by plate reader analysis relative to control; format: cell-based; conditions: HUVEC
[2] = biological target: Vascular endothelial growth factor receptor 1 (Homo sapiens, UniProt P17948); assay: Inhibition of VEGFR1 (unknown origin)
[3] = biological target: T1, Vascular endothelial growth factor receptor 2 (Homo sapiens, UniProt P35968); assay: Inhibition of VEGFR2 (unknown origin)
[4] = biological target: Neuropilin-2 (Homo sapiens, UniProt O60462); assay: Inhibition of NRP2 (unknown origin)
[5] = biological target: Atypical kinase COQ8A, mitochondrial (Homo sapiens, UniProt Q8NI60); assay: Inhibition of ADCK3 (unknown origin)
[6] = biological target: RAC-gamma serine/threonine-protein kinase (Homo sapiens, UniProt Q9Y243); assay: Inhibition of AKT3 (unknown origin)
[7] = biological target: Cyclin-dependent kinase 5 (Homo sapiens, UniProt Q00535); assay: Inhibition of CDK5 (unknown origin)
[8] = biological target: Cyclin-dependent kinase 7 (Homo sapiens, UniProt P50613); assay: Inhibition of CDK7 (unknown origin)
[9] = biological target: Epidermal growth factor receptor (Homo sapiens, UniProt P00533); assay: Inhibition of EGFR (unknown origin)
[10] = biological target: Focal adhesion kinase 1 (Homo sapiens, UniProt Q05397); assay: Inhibition of FAK (unknown origin)
[11] = biological target: Tyrosine-protein kinase HCK (Homo sapiens, UniProt P08631); assay: Inhibition of HCK (unknown origin)
[12] = biological target: Serine/threonine-protein kinase ICK (Homo sapiens, UniProt Q9UPZ9); assay: Inhibition of ICK (unknown origin)
[13] = biological target: Serine/threonine-protein kinase MAK (Homo sapiens, UniProt P20794); assay: Inhibition of MAK (unknown origin)
[14] = biological target: Serine/threonine-protein kinase 4 (Homo sapiens, UniProt Q13043); assay: Inhibition of MST1 (unknown origin)
[15] = biological target: Serine/threonine-protein kinase 38 (Homo sapiens, UniProt Q15208); assay: Inhibition of NDR1 (unknown origin)
[16] = biological target: Serine/threonine-protein kinase pim-1 (Homo sapiens, UniProt P11309); assay: Inhibition of PIM1 (unknown origin)
[17] = biological target: Tubulin (Homo sapiens) (UniProt P68371+Q9H4B7+P0DPH7+P68366+Q13509+Q71U36+P04350+Q3ZCM7+P07437+P68363+Q9BQE3+Q6PEY2+Q13885+Q9BVA1+Q9BUF5); assay: Inhibition of tubulin polymerization in human PC-3 cells assessed as microtubule destruction at 2.5 to 12.5 uM incubated for 48 hrs by immunofluorescence assay; format: cell-based; conditions: dose 2.5-12.5 µM
[18] = Cytotoxicity against human PrEC cells assessed as inhibition of cell viability incubated for 48 hrs by MTT assay; format: toxicity, cell-based
[19] = tested on: CWR22R; assay: Cytotoxicity against human 22Rv1 cells assessed as inhibition of cell viability incubated for 48 hrs by MTT assay; format: functional, cell-based
[20] = tested on: PC-3M-1E8; assay: Cytotoxicity against human PC-3M-1E8 cells assessed as inhibition of cell viability incubated for 48 hrs by MTT assay; format: functional, cell-based
[21] = tested on: PC-3; assay: Inhibition of colony formation in human PC-3 cells incubated for 10 days by crystal violet staining based assay; format: functional, cell-based; conditions: dose 0.1-12.5 µM, time 10.0 day
[22] = tested on: PC-3; assay: Induction of cell cycle arrest in human PC-3 cells assessed as accumulation of cells at G2/M phase at 0.1 uM by flow cytometry analysis (reference value: 3.24%); format: functional
[23] = tested on: PC-3; assay: Induction of cell cycle arrest in human PC-3 cells assessed as S phase cells at 0.1 uM by flow cytometry analysis (reference value: 2%); format: functional
[24] = tested on: PC-3; assay: Induction of cell cycle arrest in human PC-3 cells assessed as G0/G1 phase cells at 0.5 uM by flow cytometry analysis (reference value: 94.76%); format: functional
[25] = tested on: PC-3; assay: Induction of cell cycle arrest in human PC-3 cells assessed as S phase cells at 0.5 uM by flow cytometry analysis (reference value: 2%); format: functional
[26] = tested on: PC-3; assay: Induction of cell cycle arrest in human PC-3 cells assessed as S phase cells at 12.5 uM by flow cytometry analysis (reference value: 2%); format: functional
[27] = tested on: PC-3; assay: Induction of apoptosis in human PC-3 cells assessed as viable cells at 0.1 uM by Annexin-V FITC staining based flow cytometry analysis (reference value: 96.8%); format: functional; conditions: read-out: Activity
[28] = tested on: PC-3; assay: Induction of apoptosis in human PC-3 cells assessed as late apoptotic cells at 0.1 uM by Annexin-V FITC staining based flow cytometry analysis (reference value: 1.67%); format: functional
[29] = tested on: PC-3; assay: Induction of apoptosis in human PC-3 cells assessed as necrotic cells at 0.1 uM by Annexin-V FITC staining based flow cytometry analysis (reference value: 0.059%); format: functional
[30] = tested on: PC-3; assay: Induction of apoptosis in human PC-3 cells assessed as viable cells at 0.5 uM by Annexin-V FITC staining based flow cytometry analysis (reference value: 96.8%); format: functional; conditions: read-out: Activity
[31] = tested on: PC-3; assay: Induction of apoptosis in human PC-3 cells assessed as early apoptotic cells at 0.5 uM by Annexin-V FITC staining based flow cytometry analysis (reference value: 1.51%); format: functional
[32] = tested on: PC-3; assay: Induction of apoptosis in human PC-3 cells assessed as early apoptotic cells at 2.5 uM by Annexin-V FITC staining based flow cytometry analysis (reference value: 1.51%); format: functional
[33] = tested on: PC-3; assay: Induction of apoptosis in human PC-3 cells assessed as necrotic cells at 2.5 uM by Annexin-V FITC staining based flow cytometry analysis (reference value: 0.059%); format: functional
[34] = tested on: PC-3; assay: Induction of apoptosis in human PC-3 cells assessed as increase in cleaved caspase-3 expression at 0.5 to 12.5 uM incubated for 48 hrs by Western blotting analysis; format: functional, cell-based; conditions: dose 0.5-12.5 µM
[35] = biological target: T1, Vascular endothelial growth factor receptor 2; assay: Inhibition of VEGF-induced VEGFR2 signal pathway in HUVECs assessed as reduction in p-VEGFR2 level; format: cell-based; conditions: HUVEC, dose 0.1-12.5 µM
[36] = tested on: PC-3; assay: Antitumor activity against human PC-3 cells xenografted in BALB/c nude mouse assessed as reduction in tumor volume at 5 to 10 mg/kg, ip administered every 4 days for 20 days; format: functional, organism-based; conditions: dose 5-10 mg/kg, time 20.0 day
[37] = Toxicity in BALB/c mouse xenografted with human PC-3 cells assessed as change in lung morphology at 5 to 10 mg/kg, ip administered every 4 days for 20 days by H and E staining based inverted microscopic assay; format: organism-based; conditions: in vivo, 480 h, dose 5-10 mg/kg, time 20 day
[38] = Toxicity in BALB/c mouse xenografted with human PC-3 cells assessed as change in kidney morphology at 5 to 10 mg/kg, ip administered every 4 days for 20 days by H and E staining based inverted microscopic assay; format: organism-based; conditions: in vivo, 480 h, dose 5-10 mg/kg, time 20 day
[39] = Half life in Sprague-Dawley rat at 1.5 mg/kg, po measured upto 24 hrs by LC-MS/MS analysis; format: ADME, organism-based; conditions: in vivo
[40] = Cmax in Sprague-Dawley rat at 1.5 mg/kg, po measured upto 24 hrs by LC-MS/MS analysis; format: ADME, organism-based; parameters: time < 24 hrs, dose 1.5 mg/kg, route po; conditions: in vivo

T1 sequence (P35968 whole entry): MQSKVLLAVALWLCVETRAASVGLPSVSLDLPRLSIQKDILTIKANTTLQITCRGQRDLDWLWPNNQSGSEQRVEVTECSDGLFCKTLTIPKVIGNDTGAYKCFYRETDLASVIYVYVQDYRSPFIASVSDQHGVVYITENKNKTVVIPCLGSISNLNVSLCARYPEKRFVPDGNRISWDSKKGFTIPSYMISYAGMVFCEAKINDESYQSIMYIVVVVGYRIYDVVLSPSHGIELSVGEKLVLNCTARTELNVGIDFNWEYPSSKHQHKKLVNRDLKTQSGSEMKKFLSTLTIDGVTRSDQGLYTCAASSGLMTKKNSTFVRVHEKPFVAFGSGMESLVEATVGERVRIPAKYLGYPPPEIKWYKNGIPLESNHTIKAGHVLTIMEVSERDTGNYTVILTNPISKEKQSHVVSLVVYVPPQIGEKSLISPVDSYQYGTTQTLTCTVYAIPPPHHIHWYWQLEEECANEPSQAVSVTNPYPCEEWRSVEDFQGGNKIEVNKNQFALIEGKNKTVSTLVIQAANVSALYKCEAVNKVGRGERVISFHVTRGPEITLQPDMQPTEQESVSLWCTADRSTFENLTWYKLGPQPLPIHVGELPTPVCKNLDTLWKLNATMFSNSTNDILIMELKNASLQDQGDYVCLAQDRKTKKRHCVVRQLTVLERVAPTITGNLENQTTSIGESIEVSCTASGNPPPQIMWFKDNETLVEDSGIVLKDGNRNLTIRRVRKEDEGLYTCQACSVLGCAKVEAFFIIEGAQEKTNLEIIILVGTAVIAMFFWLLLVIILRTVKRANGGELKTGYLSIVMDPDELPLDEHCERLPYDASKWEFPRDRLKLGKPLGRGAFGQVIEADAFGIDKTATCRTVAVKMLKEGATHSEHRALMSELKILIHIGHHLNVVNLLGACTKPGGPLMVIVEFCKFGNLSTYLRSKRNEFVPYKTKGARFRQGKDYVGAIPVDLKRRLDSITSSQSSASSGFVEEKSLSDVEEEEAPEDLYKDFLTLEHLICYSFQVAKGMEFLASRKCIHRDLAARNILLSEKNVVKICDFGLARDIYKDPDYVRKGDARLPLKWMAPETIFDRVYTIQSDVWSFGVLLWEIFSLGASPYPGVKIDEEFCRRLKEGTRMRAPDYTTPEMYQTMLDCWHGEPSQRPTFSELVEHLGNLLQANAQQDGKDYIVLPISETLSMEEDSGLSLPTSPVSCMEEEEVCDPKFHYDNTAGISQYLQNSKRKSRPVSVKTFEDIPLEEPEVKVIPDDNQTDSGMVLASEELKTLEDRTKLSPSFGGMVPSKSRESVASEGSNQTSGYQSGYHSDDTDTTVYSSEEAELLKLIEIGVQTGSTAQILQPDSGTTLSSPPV
Sequence of RAC-gamma serine/threonine-protein kinase (Q9Y243 whole entry): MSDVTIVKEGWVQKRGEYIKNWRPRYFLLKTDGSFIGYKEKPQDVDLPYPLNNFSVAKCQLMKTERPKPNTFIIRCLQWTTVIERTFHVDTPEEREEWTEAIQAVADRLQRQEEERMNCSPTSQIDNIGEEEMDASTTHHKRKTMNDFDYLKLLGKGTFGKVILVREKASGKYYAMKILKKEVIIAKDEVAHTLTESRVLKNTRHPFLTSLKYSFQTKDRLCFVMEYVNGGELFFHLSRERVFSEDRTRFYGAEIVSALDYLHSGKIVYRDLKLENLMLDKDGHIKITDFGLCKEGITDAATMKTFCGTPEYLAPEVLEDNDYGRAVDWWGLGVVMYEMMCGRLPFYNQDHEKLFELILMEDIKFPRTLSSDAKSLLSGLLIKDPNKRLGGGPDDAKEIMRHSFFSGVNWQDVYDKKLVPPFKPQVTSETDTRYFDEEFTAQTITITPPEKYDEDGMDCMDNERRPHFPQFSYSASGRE
Sequence of Neuropilin-1 (Homo sapiens) (O14786 whole entry): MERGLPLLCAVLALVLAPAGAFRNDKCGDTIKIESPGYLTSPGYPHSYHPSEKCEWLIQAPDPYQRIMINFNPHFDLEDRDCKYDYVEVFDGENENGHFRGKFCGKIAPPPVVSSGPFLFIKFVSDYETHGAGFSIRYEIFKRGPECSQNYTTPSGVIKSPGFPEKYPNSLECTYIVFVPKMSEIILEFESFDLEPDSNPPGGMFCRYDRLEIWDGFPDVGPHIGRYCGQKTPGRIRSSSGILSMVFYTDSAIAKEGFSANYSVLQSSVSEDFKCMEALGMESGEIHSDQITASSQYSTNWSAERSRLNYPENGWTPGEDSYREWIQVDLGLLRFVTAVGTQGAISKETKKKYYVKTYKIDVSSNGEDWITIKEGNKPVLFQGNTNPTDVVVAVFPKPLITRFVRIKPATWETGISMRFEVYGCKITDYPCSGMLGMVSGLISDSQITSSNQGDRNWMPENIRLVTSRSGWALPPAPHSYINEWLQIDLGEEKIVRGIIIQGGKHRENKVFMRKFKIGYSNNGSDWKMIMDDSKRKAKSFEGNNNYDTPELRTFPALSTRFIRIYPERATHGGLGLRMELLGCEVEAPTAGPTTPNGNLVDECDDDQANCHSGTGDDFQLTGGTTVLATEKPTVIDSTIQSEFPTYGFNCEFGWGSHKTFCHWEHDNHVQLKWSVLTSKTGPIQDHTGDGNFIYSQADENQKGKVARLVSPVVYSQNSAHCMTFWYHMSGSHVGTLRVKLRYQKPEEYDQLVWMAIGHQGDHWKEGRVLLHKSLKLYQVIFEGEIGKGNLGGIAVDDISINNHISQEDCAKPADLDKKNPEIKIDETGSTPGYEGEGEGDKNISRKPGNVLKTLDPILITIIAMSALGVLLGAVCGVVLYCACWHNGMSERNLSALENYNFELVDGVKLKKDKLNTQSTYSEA
Sequence of Serine/threonine-protein kinase pim-1 (P11309 whole entry): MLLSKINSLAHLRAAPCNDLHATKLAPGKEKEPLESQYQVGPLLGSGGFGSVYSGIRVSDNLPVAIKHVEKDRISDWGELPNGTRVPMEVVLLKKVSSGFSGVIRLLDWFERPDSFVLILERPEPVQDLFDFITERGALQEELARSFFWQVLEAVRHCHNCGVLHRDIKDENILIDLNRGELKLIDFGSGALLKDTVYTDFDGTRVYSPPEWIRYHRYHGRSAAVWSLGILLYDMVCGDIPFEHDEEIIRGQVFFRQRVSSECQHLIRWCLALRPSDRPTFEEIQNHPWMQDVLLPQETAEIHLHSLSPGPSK
Sequence of Cyclin-dependent kinase 5 (Q00535 whole entry): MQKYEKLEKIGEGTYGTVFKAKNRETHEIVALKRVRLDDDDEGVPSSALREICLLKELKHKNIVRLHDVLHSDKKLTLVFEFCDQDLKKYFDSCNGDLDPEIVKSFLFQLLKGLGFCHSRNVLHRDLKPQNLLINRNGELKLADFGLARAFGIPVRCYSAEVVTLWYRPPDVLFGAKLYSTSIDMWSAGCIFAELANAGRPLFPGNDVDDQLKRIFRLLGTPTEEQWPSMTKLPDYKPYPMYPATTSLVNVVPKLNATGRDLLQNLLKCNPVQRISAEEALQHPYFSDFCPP
Sequence of Atypical kinase COQ8A, mitochondrial (Q8NI60 whole entry): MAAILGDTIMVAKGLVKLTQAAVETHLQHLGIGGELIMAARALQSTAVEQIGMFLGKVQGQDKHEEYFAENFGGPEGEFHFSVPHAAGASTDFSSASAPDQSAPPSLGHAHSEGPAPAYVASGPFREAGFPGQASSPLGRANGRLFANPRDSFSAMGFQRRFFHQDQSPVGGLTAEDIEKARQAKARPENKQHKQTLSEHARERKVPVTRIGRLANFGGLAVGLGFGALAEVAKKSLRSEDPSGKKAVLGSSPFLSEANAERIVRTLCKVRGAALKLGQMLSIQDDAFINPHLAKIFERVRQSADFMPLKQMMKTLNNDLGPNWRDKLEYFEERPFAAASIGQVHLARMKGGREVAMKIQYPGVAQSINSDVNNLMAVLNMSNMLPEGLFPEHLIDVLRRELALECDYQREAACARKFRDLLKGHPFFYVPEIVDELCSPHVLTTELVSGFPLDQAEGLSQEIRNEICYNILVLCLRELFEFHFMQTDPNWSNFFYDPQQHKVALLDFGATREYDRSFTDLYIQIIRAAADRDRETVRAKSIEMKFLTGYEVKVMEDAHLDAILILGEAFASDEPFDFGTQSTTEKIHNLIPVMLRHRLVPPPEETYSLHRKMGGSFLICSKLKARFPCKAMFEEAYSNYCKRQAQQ
Sequence of Serine/threonine-protein kinase ICK (Q9UPZ9 whole entry): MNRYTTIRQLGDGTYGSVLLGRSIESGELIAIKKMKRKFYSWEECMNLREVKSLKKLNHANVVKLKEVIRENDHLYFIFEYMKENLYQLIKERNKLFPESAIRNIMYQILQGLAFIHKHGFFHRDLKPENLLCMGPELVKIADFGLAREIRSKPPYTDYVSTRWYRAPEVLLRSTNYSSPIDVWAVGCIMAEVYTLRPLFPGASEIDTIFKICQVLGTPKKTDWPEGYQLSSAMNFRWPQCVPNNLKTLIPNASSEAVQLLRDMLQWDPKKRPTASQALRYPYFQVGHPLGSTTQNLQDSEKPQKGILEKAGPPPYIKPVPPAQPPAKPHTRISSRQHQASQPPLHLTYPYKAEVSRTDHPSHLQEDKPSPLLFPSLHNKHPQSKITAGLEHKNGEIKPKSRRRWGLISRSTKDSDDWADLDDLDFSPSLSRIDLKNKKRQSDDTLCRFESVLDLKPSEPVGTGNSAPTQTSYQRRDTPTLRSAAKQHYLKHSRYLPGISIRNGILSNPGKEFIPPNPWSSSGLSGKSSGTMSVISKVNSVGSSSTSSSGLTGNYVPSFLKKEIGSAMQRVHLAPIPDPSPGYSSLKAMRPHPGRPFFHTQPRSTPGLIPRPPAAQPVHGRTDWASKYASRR
Sequence of Cyclin-dependent kinase 7 (P50613 whole entry): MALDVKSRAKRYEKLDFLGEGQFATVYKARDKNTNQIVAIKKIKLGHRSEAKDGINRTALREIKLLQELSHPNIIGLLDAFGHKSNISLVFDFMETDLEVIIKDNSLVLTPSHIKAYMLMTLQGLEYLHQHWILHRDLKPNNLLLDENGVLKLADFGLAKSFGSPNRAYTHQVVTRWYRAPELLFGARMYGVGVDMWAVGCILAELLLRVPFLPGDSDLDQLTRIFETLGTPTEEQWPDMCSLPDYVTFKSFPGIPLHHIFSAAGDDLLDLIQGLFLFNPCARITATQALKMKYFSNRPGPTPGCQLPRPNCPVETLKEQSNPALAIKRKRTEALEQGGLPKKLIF

Question: Which results are given for `COc1ccc(/C=C\c2cc(OC)c(OC)c(OC)c2)cc1NC(=O)CCC(=O)N[C@@H](CCCNC(=N)N)C(=O)O`?
Answer: inhibition [1]: 94%; IC50 [2]: > 10 µM; IC50 [3]: > 10 µM; IC50 [4]: > 10 µM; IC50 [5]: > 10 µM; IC50 [6]: > 10 µM; IC50 [7]: > 10 µM; IC50 [8]: > 10 µM; IC50 [9]: > 10 µM; IC50 [10]: > 10 µM; IC50 [11]: > 10 µM; IC50 [12]: > 10 µM; IC50 [13]: > 10 µM; IC50 [14]: > 10 µM; IC50 [15]: > 10 µM; IC50 [16]: > 10 µM; inhibition [17]: Active; IC50 at 48 h [18]: > 10 µM; Activity [19]: Active; Activity [20]: Active; inhibition [21]: Dose-Dependent Effect; Activity [22]: 4.48%; Activity [23]: 1.95%; Activity [24]: 85.03%; Activity [25]: 6.01%; Activity [26]: 34.85%; viability at 0.1 µM [27]: 93.6%; Activity [28]: 4.49%; Activity [29]: 0.064%; viability at 0.5 µM [30]: 91.6%; Activity [31]: 2.95%; Activity [32]: 3.63%; Activity [33]: 0.16%; Activity [34]: Active; inhibition [35]: Dose-Dependent Effect; Activity [36]: Active; Activity [37]: Non-Toxic; Activity [38]: Non-Toxic; half-life [39]: 13.8 h; Cmax [40]: 1330 ng/mL
